Patent US9498479B2, “Dihydropyrimidine compounds and their application in pharmaceuticals” (SUNSHINE LAKE PHARMA CO., LTD., priority 2013, dated 2016)

The compounds below were run on HBV (assay: In-vitro anti-HBV activity in stable HBV-producing cell line (HepG2.2.15), HBV DNA in culture fluid by qPCR). Details: Hepatitis B virus, 168 h; HepG2.2.15 cells, HBV DNA in culture media on day 7, qPCR.
Assay type: cell-based
Procedure: Specific procedures are as follows:
HepG2.2.15 cells were seeded into each well of 96-well plates, 40,000 cells per well. Cells were treated with cell culture medium containing compounds with different concentrations 24 hours after cell seeding. The final concentration of each compound was 16.4 μM in each well and each compound was diluted to desired concentration using 3-fold gradient dilution protocol, 9 diluted points in duplicate. The culture mediums containing the compounds were refreshed on day 4 post cell seeding. Culture media were collected from the HepG2.2.15 plates on day 7 post cell seeding followed by HBV DNA extraction.
HBV DNA extraction: The HBV DNA extraction was performed using QIAamp 96 DNA Blood Kit (QIAGEN 51161).
PCR for quantification: PCR mix was prepared according to PCR system. PCR mix was dispensed to 96-well optical reaction plates (special for quantification). The standard diluted proportionally was added. Then the sample was added; The plates were sealed with optical adhesive film; PCR system was performed according to programs.
Percentage of HBV inhibition of DNA replication by compound was calculated using the following equation: % Inh.=[1-HBV DNA quantity of sample/HBV DNA quantity of DMSO control]*100.
Calculating EC50 value of compounds to HBV replication: the EC50 values were calculated based on “four-parameter logistic equation” and using GraphPad Prism 5 analysis software.
Compound CCOC(=O)C1=C(CN2CC(F)(F)C[C@@H]2CCC(=O)O)NC(c2nccs2)=N[C@H]1c1ccc(F)cc1Br [Example 17, 3-((S)-1-(((R)-6-(2-bromo-4-fluorophenyl)-5-(ethoxycarbonyl)-2-(thiazol-2-yl)-3,6-dihydropyrimidin-4-yl)methyl)-4,4-difluoropyrrolidin-2-yl)propanoic acid] has an EC50 of 12 nM.
CCOC(=O)C1=C(CN2CC(F)(F)C[C@H]2CCC(=O)O)NC(c2nccn2C)=NC1c1ccc(F)cc1Br (stereo partly drawn) [Example 7, 3-((2R)-1-((6-(2-bromo-4-fluorophenyl)-5-(ethoxycarbonyl)-2-(1-methyl-1H-imidazol-2-yl)-3,6-dihydropyrimidin-4-yl)methyl)-4,4-difluoropyrrolidin-2-yl)propanoic acid] was tested, and the EC50 was 65 nM.
COC(=O)C1=C(CN2CC(F)(F)C[C@@H]2CCC(=O)O)NC(c2nccs2)=N[C@H]1c1ccc(Cl)cc1Cl [Example 22, 3-((S)-1-(((R)-6-(2,4-dichlorophenyl)-5-(methoxycarbonyl)-2-(thiazol-2-yl)-3,6-dihydropyrimidin-4-yl)methyl)-4,4-difluoropyrrolidin-2-yl)propanoic acid] showed an EC50 of 11 nM.
With COC(=O)C1=C(CN2CC(F)(F)C[C@@H]2CCC(=O)O)NC(c2nccs2)=N[C@H]1c1ccc(F)cc1Br [Example 18, 3-((S)-1-(((R)-6-(2-bromo-4-fluorophenyl)-5-(methoxycarbonyl)-2-(thiazol-2-yl)-3,6-dihydropyrimidin-4-yl)methyl)-4,4-difluoropyrrolidin-2-yl)propanoic acid] the EC50 was 14 nM.
